Data: patent US12377100B2 (GILEAD SCIENCES, INC., priority 2015, dated 2025)

Tests used:
Type in all cases: cell-based
Details in all cases: human PBMCs, 24 hours incubation
IL12p40 = assay: PBMC cytokine profiling assay, IL12-p40 induction
Description: (§1) Certain compounds disclosed herein we tested according to the procedure described below. Additionally, certain reference compounds were prepared and tested along with the compounds of the present disclosure.
(§2) Compounds were dissolved and stored in DMSO (Sigma-Aldrich, St. Louis, MO) at 10 mM concentration.
(§3) Cryopreserved human PBMCs isolated from healthy donors were purchased from StemCell Technologies (Vancouver, Canada). Cell culture medium used was RPMI with L-Glutamine (Mediatech, Manassas, VA) supplemented with 10% fetal bovine serum (Hyclone, GE Healthcare, Logan, UT) and Penicillin-Streptomycin (Mediatech). Human TNFα, IL12p40, and IFNα2a 384-well Assay capture plates, standards, buffers and processing reagents were obtained from MesoScale Discovery Technologies (MSD; Rockville, MD).
(§4) Cryopreserved human PBMCs (1×10e8 cells/ml) were thawed at 37° C. and resuspended in 25 mL warm cell culture medium. The cells were pelleted at 200×g (Beckman Avanti J-E) for 5 min and resuspended in 20 mL of fresh culture media. Cells were counted using a Cellometer (Nexcelcom Bioscience), adjusted to 2×10e6 cells, and incubated for 2 hours in an incubator set at 37° C., 5% CO2 to recover from cryopreservation. Compounds were serially diluted in DMSO at half-log steps to generate a 10-point dose range. Using a Bravo pipette equipped with a 384 well head (Agilent), 0.4 μL of compound was transferred to each well of a 384 well black, clear bottom plate (Greiner Bio-One, Germany) containing 30 μL of cell culture medium. Recovered PBMCs were then dispensed into the assay plate at 50 μL per well (100k cells/well) using the MicroFlow multichannel dispenser (Biotek). Final DMSO concentration was 0.5%. DMSO was used as the negative control. The plates were incubated for 24 hours at 37° C. PBMCs in the assay plate were pelleted by centrifugation (Beckman Avanti J-E) at 200×g for 5 min.
(§5) Using a Biomek FX 384 well pipetting station (Beckman), conditioned culture medium (CCM) from the assay plate was transferred to MSD capture plates customized for each cytokine. For IFNα and IL12-p40 detection, 25 μL and 20 μL of CCM were added directly to each capture plate, respectively. For TNFα detection, CCM was diluted 1:9 in fresh culture medium, and 20 μL of diluted CCM was used. Serially diluted calibration standards for each cytokine were used to generate standard curves and establish assay linearity. The plates were sealed and incubated overnight at 4° C. in a plate shaker (Titer Plate) set at 200 rpm. On the following day, antibodies specific for each cytokine were diluted 1:50 in MSD Diluent 100 antibody dilution buffer. Diluted antibodies were added to corresponding capture plates at 10 μL/well, and incubated at RT for 1-2 hrs in the shaker. The plates were washed with PBST buffer (3×, 60 μl/well) using a Biotek Multiflow plate washer. MSD Read Buffer diluted to 2× in deionized water and 35 μL/well was added via Biomek FX instrument. The plates were read immediately in a MSD6000 reader. Data were normalized to positive and negative controls in each assay plate. AC50 values represent compound concentrations at half-maximal effect based on normalized percent activation and calculated by non-linear regression using Pipeline Pilot software (Accelrys, San Diego, CA).

TNFα = assay: PBMC cytokine profiling assay, TNFα induction
Description: as §1, §2, §3, §4, §5

IFNα = assay: PBMC cytokine profiling assay, IFNα induction
Description: as §1, §2, §3, §4, §5

Row | SMILES | AC50 (IL12p40; Homo sapiens, PBMC, 24 h) | AC50 (TNFα; Homo sapiens, PBMC, 24 h) | AC50 (IFNα; Homo sapiens, PBMC, 24 h) | also measured
1 | CCC[C@@H](CO)Nc1nc(N)nc2cccnc12 [Example 27C, (S)-2-((2-amino-[3,2-d]pyrimidin-4-yl)amino)pentan-1-ol] | 0.42 µM | 0.52 µM | 2 µM | 
2 | CCCC[C@H](CCO)Nc1nc(N)nc2cccnc12 [Example 100, (R)-3-((2-aminopyrido[3,2-d]pyrimidin-4-yl)amino)heptan-1-ol] | 3.5 µM | 3.8 µM | 4.6 µM | 
3 | Nc1nc(NCCCC(F)(F)F)c2ncccc2n1 [Example 29, N^4-(4,4,4-trifluorobutyl)pyrido[3,2-d]pyrimidine-2,4-diamine] | 15.5 µM | 18.3 µM | 3.9 µM | 
4 | C=CCC[C@](C)(CO)Nc1nc(N)nc2cc(F)cnc12 [Example 84, (R)-2-((2-amino-7-fluoropyrido[3,2-d]pyrimidin-4-yl)amino)-2-methylhex-5-en-1-ol] | 3.9 µM | 3 µM | > 50 µM | 
5 | CCCC[C@@H](Nc1nc(N)nc2cc(F)cnc12)[C@H](C)O [Example 87, (2S,3R)-3-((2-amino-7-fluoropyrido[3,2-d]pyrimidin-4-yl)amino)heptan-2-ol] | 4.5 µM | 5 µM | > 50 µM | 
6 | CCC[C@@H](CO)Nc1nc(N)nc2cc(F)c(C)nc12 [Example 67, (S)-2-((2-amino-7-fluoro-6-methylpyrido[3,2-d]pyrimidin-4-yl)amino)pentan-1-ol] | 3.9 µM | 6.3 µM | 23 µM | 
7 | CCC[C@@H](CO)Nc1nc(N)nc2cc(Br)cnc12 [Example 18F, (S)-2-((2-amino-7-bromopyrido[3,2-d]pyrimidin-4-yl)amino)pentan-1-ol] | 15.2 µM | 16.1 µM | 30.6 µM | 
8 | C[C@@H](CN)Nc1nc(N)nc2cccnc12 [Example 49, (S)—N^4-(1-aminopropan-2-yl)pyrido[3,2-d]pyrimidine-2,4-diamine] |  |  |  | AC50 (IL12p40; PBMC): 18.1 µM; AC50 (TNFα; PBMC): 22.4 µM; AC50 (IFNα; PBMC): 41.6 µM
9 | CCCC[C@](C)(CN[C@@H](C)C(F)(F)F)Nc1nc(N)nc2cccnc12 [Example 118, N^4—((R)-2-methyl-1-(((S)-1,1,1-trifluoropropan-2-yl)amino)hexan-2-yl)pyrido[3,2-d]pyrimidine-2,4-diamine] | 9.1 µM | 9.3 µM | > 50 µM | 
10 | CCCC[C@](C)(CNC(C)=O)Nc1nc(N)nc2cc(C)cnc12 [Example 66, (R)—N-(2-((2-amino-7-methylpyrido[3,2-d]pyrimidin-4-yl)amino)-2-methylhexyl)acetamide] | 0.03 µM | 0.04 µM | 1.6 µM | 
11 | CCCCNc1nc(N)nc2c(C)ccnc12 [Example 25E, N^4-butyl-8-methylpyrido[3,2-d]pyrimidine-2,4-diamine] | 19.7 µM | 20 µM | 12.3 µM | 
12 | CCCC[C@@H](Nc1nc(N)nc2cccnc12)[C@H](C)O [Example 86] |  |  |  | AC50 (IL12p40): 2.4 µM; AC50 (TNFα): 2.9 µM; AC50 (IFNα): 37.4 µM
13 | Nc1nc(NCCCO)c2ncccc2n1 [Example 13, 3-((2-aminopyrido[3,2-d]pyrimidin-4-yl)amino)propan-1-ol] | > 50 µM | > 50 µM | > 50 µM | 
14 | CCCC[C@H](CO)Nc1nc(N)nc2cc(Br)cnc12 [Example 82, (R)-2-((2-amino-7-bromopyrido[3,2-d]pyrimidin-4-yl)amino)hexan-1-ol] | 14.3 µM | 16.6 µM | > 50 µM | 
15 | CCCC[C@H](CO)Nc1nc(N)nc2cc(OCC)cnc12 [Example 106, (R)-2-((2-amino-7-ethoxypyrido[3,2-d]pyrimidin-4-yl)amino)hexan-1-ol] | 10.2 µM | 13.8 µM | > 50 µM | 
16 | CC(C)CC[C@H](CO)Nc1nc(N)nc2cccnc12 [Example 76, (R)-2-((2-aminopyrido[3,2-d]pyrimidin-4-yl)amino)-5-methylhexan-1-ol] | 31.8 µM | 36.9 µM | 36.9 µM | 
17 | Nc1nc(NC(CO)CO)c2ncccc2n1 [Example 17, 2-((2-aminopyrido[3,2-d]pyrimidin-4-yl)amino)propane-1,3-diol] | > 50 µM | > 50 µM | > 50 µM | 

Row | SMILES | AC50 (IL12p40; Homo sapiens, PBMC, 24 h) | AC50 (TNFα; Homo sapiens, PBMC, 24 h) | AC50 (IFNα; Homo sapiens, PBMC, 24 h) | also measured
18 | CCC[C@H](Nc1nc(N)nc2cccnc12)C(=O)NCCN [Example 36, (S)—N-(2-aminoethyl)-2-((2-aminopyrido[3,2-d]pyrimidin-4-yl)amino)pentanamide] | 10.8 µM | 21.5 µM | > 50 µM | 
19 | CCC[C@H](Nc1nc(N)nc2cccnc12)C(=O)OC [Example 5B, (S)-methyl 2-((2-aminopyrido[3,2-d]pyrimidin-4-yl)amino)pentanoate] | > 50 µM | > 50 µM | 41 µM | 
20 | CCCC[C@@H](Nc1nc(N)nc2cccnc12)c1ncc[nH]1 [Example 55, (R)—N^4-(1-(1H-imidazol-2-yl)pentyl)pyrido[3,2-d]pyrimidine-2,4-diamine] | 21.5 µM | 23.9 µM | 28.8 µM | 
21 | C=Cc1cnc2c(N[C@@H](CO)CCCC)nc(N)nc2c1 [Example 70, (R)-2-((2-amino-7-vinylpyrido[3,2-d]pyrimidin-4-yl)amino)hexan-1-ol] | 2.7 µM | 3.3 µM | > 50 µM | 
22 | CCC[C@@H](CO)Nc1nc(N)nc2cc(F)c(Cl)nc12 [Example 24D] | 3.1 µM | 3.4 µM | 18.4 µM | 
23 | CCCCNc1nc(N)nc2cccnc12 [Example 1B, N^4-butylpyrido[3,2-d]pyrimidine-2,4-diamine] | 2 µM | 3.9 µM | 2.7 µM | 
24 | CCCC[C@](C)(CO)Nc1nc(N)nc2cc(N)cnc12 [Example 115, (R)-2-((2,7-diaminopyrido[3,2-d]pyrimidin-4-yl)amino)-2-methylhexan-1-ol] | 0.027 µM | 0.024 µM | 9 µM | 
25 | CCCC[C@@H](CO)Nc1nc(N)nc2cccnc12 [Example 14, (S)-2-((2-aminopyrido[3,2-d]pyrimidin-4-yl)amino)hexan-1-ol] | 0.94 µM | 1.1 µM | 1.6 µM | 
26 | CCCC[C@H](CO)Nc1nc(N)nc2cc(OC)cnc12 [Example 105, (R)-2-((2-amino-7-methoxypyrido[3,2-d]pyrimidin-4-yl)amino)hexan-1-ol] | 3.4 µM | 3.5 µM | > 50 µM | 
27 | CCCC[C@@](C)(Nc1nc(N)nc2cccnc12)C(C)O (single isomer, unassigned) [Example 96] |  |  |  | AC50 (IL12p40): 1 µM; AC50 (TNFα): 1.1 µM; AC50 (IFNα): 2.8 µM
28 | CC(F)CC[C@H](CO)Nc1nc(N)nc2cccnc12 (stereo partly drawn) [Example 73, (2R)-2-((2-aminopyrido[3,2-d]pyrimidin-4-yl)amino)-5-fluorohexan-1-ol] | 1.3 µM | 1.3 µM | > 50 µM | 
29 | Nc1nc(N[C@H](CO)c2ccccc2)c2ncccc2n1 [Example 7, (S)-2-((2-aminopyrido[3,2-d]pyrimidin-4-yl)amino)-2-phenylethanol] | > 50 µM | > 50 µM | 34 µM | 
30 | CCCC[C@@](C)(Nc1nc(N)nc2cc(F)cnc12)C(C)O (single isomer, unassigned) [Example 94] |  |  |  | AC50 (IL12p40): 0.7 µM; AC50 (TNFα): 1 µM; AC50 (IFNα): 2.2 µM
31 | CCCC[C@H](CO)Nc1nc(N)nc2cc(C)cnc12 [Example 107, (R)-2-((2-amino-7-methylpyrido[3,2-d]pyrimidin-4-yl)amino)hexan-1-ol] | 1.8 µM | 2.8 µM | > 50 µM | 
32 | CC(C)C[C@@H](CO)Nc1nc(N)nc2cccnc12 [Example 3B, (S)-2-((2-aminopyrido[3,2-d]pyrimidin-4-yl)amino)-4-methylpentan-1-ol] | 15.5 µM | 29.4 µM | 14.5 µM | 
33 | CCCC[C@](C)(CO)Nc1nc(N)nc2cc(F)cnc12 [Example 98, (R)-2-((2-amino-7-fluoropyrido[3,2-d]pyrimidin-4-yl)amino)-2-methylhexan-1-ol] | 0.23 µM | 0.24 µM | 134 µM | 
